Patent US9895409B2, “Remedy for gastritis and gastric ulcer” (priority 2011, dated 2018)

Tests used:
Format in all cases: in vivo, Wistar rats
[1] = system: stomach damage induced by aspirin; test: Effect on preventing stomach damage in rats with stomach damage induced by aspirin (microscopic observation of opened stomach); settings: oral, once every day for 5 weeks; aspirin 50 mg/kg BW; salt 0.167 g/kg BW; glibenclamide 10 mg/kg BW abdominally 1 hour before
Description: (§1) In order to measure an effect on preventing stomach damage, five-week Wistar rats were purchased from Central Lab. Animal Inc., Seoul, Korea. A breeding room was set to be 20° C. of the temperature, 50 to 60% of relative humidity, and 12 hours of lighting cycle, and water and food were set to be freely taken. The test animals were accommodated for 2 weeks using a general feed prepared on the basis of AlN-93G, and then, the weights of the animals were measured to divide them into each of test groups (n=8). Since then, the test groups were a normal group (Con) injected with distilled water only, a control group (NaCl) injected with pure sodium chloride (NaCl, 0.167 g/kg BW) that was a main ingredient of salt only, and a heat-treated salt-treating group injected with heat-treated purple salt (0.167 g/kg BW), in which each of sample solutions was orally injected along with aspirin (50 mg/kg BW) once every day for 5 weeks. In addition, glibenclamide (10 mg/kg BW) solution inhibiting KATP channel dissolved in 0.01 N NaOH including 4% glucose was abdominally injected 1 hour before orally injecting aspirin (50 mg/kg BW) and heat-treated salt (0.167 g/kg BW), and performed once every day for 5 weeks. The respective treating groups were fasted for 24 hours before sacrificing; sacrificed; and then, the stomach was removed.

[2] = system: gastric ulcer induced by aspirin; test: Gastric ulcer index in rats with stomach damage induced by aspirin (method of Dekanski et al.); settings: oral, once every day for 5 weeks; aspirin 50 mg/kg BW; salt 0.167 g/kg BW; glibenclamide 10 mg/kg BW; n=8
Description: as §1, with “The respective treating groups were fasted for 24 hours before sacrificing; sacrificed; and then, the stomach was removed.” left out
An effect of the heat-treated purple salt obtained in Example 2 on suppressing gastric ulcer was measured.

[3] = system: damage of gastric mucous membrane induced by aspirin; test: Damage of gastric mucous membrane measured as stomach thickness in rats with stomach damage induced by aspirin; settings: oral, once every day for 5 weeks; aspirin 50 mg/kg BW; salt 0.167 g/kg BW; glibenclamide 10 mg/kg BW; ocular micrometer
Description: as §1, with “[…] A degree of the damage of gastric mucous membrane of the heat-treated purple salt obtained” for “In addition, glibenclamide (10 mg/kg BW) solution inhibiting KATP channel dissolved”, “Example 2” for “0.01 N NaOH including 4% glucose”, “measured by measuring a stomach thickness. […] Since” for “abdominally injected 1 hour before orally injecting aspirin (50 mg/kg BW) and heat-treated salt (0.167 g/kg BW), and performed once every day for 5 weeks. The respective treating groups were fasted for 24 hours before sacrificing; sacrificed; and”, “thicknesses were measured using an ocular micrometer.” for “was removed.”

Compound: CC(=O)Oc1ccccc1C(=O)O [aspirin]
- stomach damage (bleeding, inflammation, mucosa) observed with optical microscope (FIG. 2) [1]: severe damage along with gastric hemorrhage
- gastric ulcer index (FIG. 3) [2]: 37.3±10.4
- stomach thickness (FIG. 4) [3]: very thin as compared with the normal group
